Measured values taken from US10239856B2, “Synthesis of resorcylic acid lactones useful as therapeutic agents” (UNIVERSITY DE STRASBOURG, priority 2008, dated 2019).
Where two headings read alike, the source gives them in different places.

Columns and labels:
HSP90α = HSP90α (Homo sapiens, UniProt P07900); experiment: Affinity to HSP90α; format: binding
Her-2 (HSP90 client) = Her-2 (HSP90 client) degradation (client depletion); format: cell-based
Description: A number of the compounds of the invention were tested for affinity to HSP90α (see Kim et al., J. Biomol. Screen., 2004, 9, 375), Her-2 (HSP90 client) degradation (see Xu et al., J. Biol. Chem., 2001, 276, 3702), and cytotoxicity against SKBr3 and HCC1954, two breast cancer cell lines which over express Her-2.

[1] = read-out: Client Depletion; Her-2 degradation
[2] = Her-2 degradation; read-out: Client Depletion

Row | IC50 (HSP90α; HSP90 affinity) | IC50 (Her-2 (HSP90 client); [1]) | IC50 (HSP90α; read-out: HSP90 affinity) | IC50 (Her-2 (HSP90 client); [2]) | SMILES
1 | 0.886 µM | 3.07 µM |  |  | CC1CCCCN1C(=O)CON=C1/C=C/CC/C=C/CCOC(=O)c2c(O)cc(O)cc2C1 (stereo not shown) [compound 372]
2 | 0.059 µM | 0.089 µM |  |  | CC1CCCN(C(=O)CON=C2/C=C/CC/C=C/CCOC(=O)c3c(O)cc(O)cc3C2)C1 (stereo not shown) [compound 373]
3 | 0.238 µM | 2.03 µM |  |  | CC1CCCC(C)N1C(=O)CON=C1/C=C/CC/C=C/CCOC(=O)c2c(O)cc(O)cc2C1 (stereo not shown) [compound 374]
4 | 0.07 µM | 0.201 µM |  |  | CC1CCN(C(=O)CON=C2/C=C/CC/C=C/CCOC(=O)c3c(O)cc(O)cc3C2)CC1 [compound 375]
5 | 2.24 µM | > 10 µM |  |  | O=C1OCC/C=C/CC/C=C/C(=NOCC(=O)N2CCC(c3ccccc3)CC2)Cc2cc(O)cc(O)c21 [compound 376]
6 | 5.76 µM | > 10 µM |  |  | O=C1OCC/C=C/CC/C=C/C(=NOCC(=O)N2CCC(Cc3ccccc3)CC2)Cc2cc(O)cc(O)c21 [compound 377]
7 | 0.057 µM | 0.929 µM |  |  | O=C(CON=C1/C=C/CC/C=C/CCOC(=O)c2c(O)cc(O)cc2C1)NCc1ccccc1 [compound 378]
8 | 0.162 µM | 0.627 µM |  |  | CC(C)N(C(=O)CON=C1/C=C/CC/C=C/CCOC(=O)c2c(O)cc(O)cc2C1)C(C)C [compound 379]
9 | 0.124 µM | 0.588 µM |  |  | O=C1OCC/C=C/CC/C=C/C(=NOCC(=O)N2CCOCC2)Cc2cc(O)cc(O)c21 [compound 380]
10 | 2.99 µM | > 10 µM |  |  | O=C1OCC/C=C/CC/C=C/C(=NOCC(=O)N(Cc2ccccc2)Cc2ccccc2)Cc2cc(O)cc(O)c21 [compound 381]
11 | 0.022 µM | 0.122 µM |  |  | O=C1OCC/C=C/CC/C=C/C(=NOCC(=O)N2CC=CCC2)Cc2cc(O)cc(O)c21 [compound 382]
12 | 0.116 µM | 0.708 µM |  |  | O=C(CON=C1/C=C/CC/C=C/CCOC(=O)c2c(O)cc(O)cc2C1)NC1CCCCC1 [compound 383]
13 | 0.07 µM | 0.512 µM |  |  | O=C1OCC/C=C/CC/C=C/C(=NOCC(=O)N2CCSCC2)Cc2cc(O)cc(O)c21 [compound 384]
14 | 0.373 µM | 8.16 µM |  |  | COC(=O)CON=C1/C=C/CC/C=C/CCOC(=O)c2c(O)cc(O)cc2C1 [compound 385]
15 | 0.128 µM | 0.669 µM |  |  | O=C1OCC/C=C/CC/C=C/C(=NOCC(=O)N2CC=CC2)Cc2cc(O)cc(O)c21 [compound 386]
16 | 0.118 µM | 0.568 µM |  |  | CC1C=CC(C)N1C(=O)CON=C1/C=C/CC/C=C/CCOC(=O)c2c(O)cc(O)cc2C1 (stereo not shown) [compound 387]
17 | 0.219 µM | 0.509 µM |  |  | O=C1OCC/C=C/CC/C=C/C(=NOCC(=O)N2CCCC2)Cc2cc(O)cc(O)c21 [compound 388]
18 | 0.155 µM | 0.454 µM |  |  | CCCN(CCC)C(=O)CON=C1/C=C/CC/C=C/CCOC(=O)c2c(O)cc(O)cc2C1 [compound 389]
19 | 0.094 µM | 0.549 µM |  |  | CC(C)CN(CC(C)C)C(=O)CON=C1/C=C/CC/C=C/CCOC(=O)c2c(O)cc(O)cc2C1 [compound 390]
20 | 0.337 µM | 2.83 µM |  |  | CC1CN(C(=O)CON=C2/C=C/CC/C=C/CCOC(=O)c3c(O)cc(O)cc3C2)CC(C)O1 (stereo not shown) [compound 391]
21 |  |  | 0.327 µM | 2.87 µM | CC(C)(C)OC(=O)N1CCN(C(=O)CON=C2/C=C/CC/C=C/CCOC(=O)c3c(O)cc(O)cc3C2)CC1 [compound 392]
22 | 0.097 µM |  |  |  | O=C1OCC/C=C/CC/C=C/C(=NOCC(=O)N2CCNCC2)Cc2cc(O)cc(O)c21 [compound 393]
23 | 0.096 µM | 1.58 µM |  |  | CCCC1C/C=C/CC/C=C/C(=NOCC(=O)N2CCCCC2)Cc2c(Cl)c(O)cc(O)c2C(=O)O1 (stereo not shown) [compound 394]
24 | 0.097 µM | 0.754 µM |  |  | O=C1NCC/C=C/CC/C=C/C(=NOCC(=O)N2CCCCC2)Cc2c(Cl)c(O)cc(O)c21 [compound 395]
25 |  |  | 0.182 µM | 3.65 µM | O=C1OCCC/C=C/CC/C=C/C(=NOCC(=O)N2CCCCC2)Cc2c(Cl)c(O)cc(O)c21 [compound 396]
26 | 0.432 µM | 0.98 µM |  |  | C=C/C1=C\CC/C=C/C(=NOCC(=O)N2CCCCC2)Cc2c(Cl)c(O)cc(O)c2C(=O)OCC1 [compound 397]
27 | 0.012 µM |  |  |  | C[C@@H]1C/C=C/[C@@H](O)C/C=C/C(=N/OCC(=O)N2CCCCC2)Cc2cc(O)cc(O)c2C(=O)O1 [compound 457]
28 |  | 0.45 µM |  |  | C[C@@H]1C[C@H]2O[C@@H]2/C=C\C=C\C(=O)Cc2c(Cl)c(O)cc(O)c2C(=O)O1 [radicicol, reference compound]

Row | SMILES | IC50 (HSP90α; HSP90 affinity) | IC50 (Her-2 (HSP90 client); [1]) | IC50 (HSP90α; read-out: HSP90 affinity) | IC50 (Her-2 (HSP90 client); [2])
29 | C[C@@H]1C/C=C/CC/C=C/C(=O)Cc2c(Cl)c(O)cc(O)c2C(=O)O1 [pochonin D, Pochonin D, reference compound] |  |  | 0.36 µM | 3.5 µM
